Measurements published in patent US9079866B2, “Flap modulators” (JANSSEN PHARMACEUTICA NV, priority 2013, dated 2015).
Where a name gives a salt, the structure may show the parent alone.

Biological target: human FLAP (Homo sapiens (Human), UniProt P20292)
Assay: FLAP binding assay (HTRF format)
Conditions: HTRF format
Experimental: The ability of the compounds of the present invention to treat a FLAP-mediated disease and/or disorder, or associated symptoms or complications thereof, was determined using the following procedures. Binding assay data represent the average value obtained from two different assay plates, with samples run in duplicate on each plate. Human whole blood assay data represent a single replicate on an assay plate using whole blood from at least one healthy donor.
Data are expressed as a HTRF ratio.

[1] = human FLAP wild type, average of two plates, duplicates

human FLAP, sequence (P20292 whole entry): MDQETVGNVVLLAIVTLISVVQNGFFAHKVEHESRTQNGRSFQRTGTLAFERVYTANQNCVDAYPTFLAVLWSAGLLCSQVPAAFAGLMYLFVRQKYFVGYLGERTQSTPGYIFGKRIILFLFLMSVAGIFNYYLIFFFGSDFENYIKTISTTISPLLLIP

SMILES	Ki (wild type FLAP)	Ki [1]
NCCOc1ccccc1-c1ccc(-c2cnc(N)nc2)c(F)c1 [Example 641, 5-[2′-(2-Aminoethoxy)-3-fluorobiphenyl-4-yl]pyrimidin-2-amine]	> 10000 nM	
Nc1cnc(S(=O)(=O)c2ccccc2-c2ccc(-c3cnc(N)nc3)c(F)c2)cn1 [Example 723, 5-{2′-[(5-Aminopyrazin-2-yl)sulfonyl]-3-fluorobiphenyl-4-yl}pyrimidin-2-amine]	> 10000 nM	
Nc1ncc(-c2ccc(-c3cccnc3S(=O)(=O)CCN3CCOCC3)cc2F)cn1 [Example 821, 5-(2-Fluoro-4-(2-((2-morpholinoethyl)sulfonyl)pyridine-3-yl)phenyl)pyrimidin-2-amine formic acid salt]	> 10000 nM	
CN1C(C)(C)CC(NS(=O)(=O)c2ccccc2-c2ccc(-c3cnc(N)cn3)c(F)c2)CC1(C)C [Example 30, 4′-(5-Aminopyrazin-2-yl)-3′-fluoro-N-(1,2,2,6,6-pentamethylpiperidin-4-yl)biphenyl-2-sulfonamide]		95 nM
Nc1ncc(-c2ccc(-c3ccccc3S(=O)(=O)C3CC3)cn2)cn1 [Example 691, 5-{5-[2-(Cyclopropylsulfonyl)phenyl]pyridin-2-yl}pyrimidin-2-amine trifluoroacetic acid salt]	> 10000 nM	
C[C@@H](CO)NS(=O)(=O)c1ccccc1-c1ccc(-c2ccc(N)nc2)c(F)c1 [Example 347, (S)-4′-(6-Aminopyridin-3-yl)-3′-fluoro-N-(1-hydroxypropan-2-yl)-[1,1′-biphenyl]-2-sulfonamide]		77 nM
Nc1ncc(-c2ccc(-c3ccccc3OC3CCNCC3)cc2F)cn1 [Example 631, 5-[3-Fluoro-2′-(piperidin-4-yloxy)biphenyl-4-yl]pyrimidin-2-amine]	> 10000 nM	
Nc1cnc(-c2ccc(-c3cccnc3OCC3CCNC3)cc2F)cn1 (stereo not shown) [Example 407, 5-{2-Fluoro-4-[2-(pyrrolidin-3-ylmethoxy)pyridin-3-yl]phenyl}pyrazin-2-amine]	> 10000 nM	
Nc1ccnc(S(=O)(=O)c2ccccc2-c2ccc(-c3cnc(N)nc3)c(F)c2)n1 [Example 722, 5-{2′-[(4-Aminopyrimidin-2-yl)sulfonyl]-3-fluorobiphenyl-4-yl}pyrimidin-2-amine]	> 10000 nM	
CC(C)(C)NS(=O)(=O)c1ccccc1-c1ccc(-c2cnc(NS(C)(=O)=O)cn2)c(F)c1 [Example 748, N-(tert-Butyl)-3′-fluoro-4′-(5-(methylsulfonamido)pyrazin-2-yl)-[1,1′-biphenyl]-2-sulfonamide]	> 10000 nM	
C[S+]([O-])c1ccccc1-c1ccc(-c2cnc(N)cn2)c(F)c1 (racemic) [Example 700, racemic 5-[3-Fluoro-2′-(methylsulfinyl)biphenyl-4-yl]pyrazin-2-amine]	> 10000 nM	
C[C@@H](NC(=O)c1ccccc1-c1ccc(-c2cnc(N)nc2)c(F)c1)C(F)(F)F [Example 518, 4′-(2-Aminopyrimidin-5-yl)-3′-fluoro-N-[(1R)-2,2,2-trifluoro-1-methylethyl]biphenyl-2-carboxamide]	> 10000 nM	
CC(C)Sc1ncc(C(F)(F)F)cc1-c1ccc(-c2cnc3[nH]ccc3n2)c(F)c1 [Example 394, 2-(2-Fluoro-4-{2-[(1-methylethyl)sulfanyl]-5-(trifluoromethyl)pyridin-3-yl}phenyl)-5H-pyrrolo[2,3-b]pyrazine]		> 10000 nM
Nc1ncc(-c2ccc(-c3ccccc3C(=O)N3CC[C@H](O)C3)cc2F)cn1 [Example 772, (3S)-1-{[4′-(2-Aminopyrimidin-5-yl)-3′-fluorobiphenyl-2-yl]carbonyl}pyrrolidin-3-ol]	> 10000 nM	
C[C@H](NS(=O)(=O)c1ccccc1-c1ccc(-c2cnc(N)nc2)c(F)c1)C(=O)O [Example 308, N-{[4′-(2-Aminopyrimidin-5-yl)-3′-fluorobiphenyl-2-yl]sulfonyl}-L-alanine]		> 10000 nM
Nc1cnc(-c2ccc(-c3ccccc3C(=O)N3CCNC(=O)C3)cc2F)cn1 [Example 519, 4-{[4′-(5-Aminopyrazin-2-yl)-3′-fluorobiphenyl-2-yl]carbonyl}piperazin-2-one]	> 10000 nM	
Fc1cc(-c2cccnc2OCC(F)(F)F)ccc1-c1cnc2[nH]ccc2n1 [Example 397, 2-{2-Fluoro-4-[2-(2,2,2-trifluoroethoxy)pyridin-3-yl]phenyl}-5H-pyrrolo[2,3-b]pyrazine]	> 10000 nM	
Nc1cnc(-c2ccc(-c3cc(C(F)(F)F)ccc3-c3cnc(N)nc3)cc2F)cn1 [Example 845, 5-[4′-(5-Aminopyrazin-2-yl)-3′-fluoro-5-(trifluoromethyl)biphenyl-2-yl]pyrimidin-2-amine]	> 10000 nM	
COc1ccccc1-c1ccc(-c2cnc(N)nc2)nc1 [Example 678, 5-[5-(2-Methoxyphenyl)pyridin-2-yl]pyrimidin-2-amine]	> 10000 nM	
Nc1ncc(-c2ccc(-c3ccccc3C(=O)NCCO)cc2F)cn1 [Example 761, 4′-(2-Aminopyrimidin-5-yl)-3′-fluoro-N-(2-hydroxyethyl)biphenyl-2-carboxamide]	> 10000 nM	
Nc1ncc(-c2ccc(-c3ccccc3C(=O)N3CC[C@@H](O)C3)cc2F)cn1 [Example 770, (3R)-1-{[4′-(2-Aminopyrimidin-5-yl)-3′-fluorobiphenyl-2-yl]carbonyl}pyrrolidin-3-ol]	> 10000 nM	
CS(=O)(=O)Nc1ccccc1-c1ccc(-c2cnc(N)cn2)cc1 [Example 593, N-[4′-(5-Aminopyrazin-2-yl)biphenyl-2-yl]methanesulfonamide]	> 10000 nM	
CC(C)(C)C(=O)Nc1ncccc1-c1ccc(-c2cnc(N)cn2)c(F)c1 [Example 801, N-{3-[4-(5-Aminopyrazin-2-yl)-3-fluorophenyl]pyridin-2-yl}-2,2-dimethylpropanamide]	> 10000 nM	
Nc1ncc(-c2ccc(-c3ccccc3C(=O)N3CCOC(C(F)(F)F)C3)cc2F)cn1 (racemic) [Example 766, racemic 5-(3-Fluoro-2′-{[2-(trifluoromethyl)morpholin-4-yl]carbonyl}biphenyl-4-yl)pyrimidin-2-amine]	1910 nM	
CC(C)(C)NS(=O)(=O)c1ccccc1-c1ccc(-c2cnc(N)c(C(=O)O)n2)c(F)c1 [Example 598, 3-Amino-6-[2′-(tert-butylsulfamoyl)-3-fluorobiphenyl-4-yl]pyrazine-2-carboxylic acid]	> 10000 nM	
Nc1ncc(-c2ccc(-c3ccccc3C(=O)NC3CCC(O)CC3)cc2F)cn1 (mixture of isomers) [Example 765, (cis/trans) 4′-(2-Aminopyrimidin-5-yl)-3′-fluoro-N-(4-hydroxycyclohexyl)biphenyl-2-carboxamide]	> 10000 nM	
CS(=O)(=O)c1ccccc1-c1ccc(-c2ccc(N)nc2)c(F)c1 [Example 341, 5-(3-Fluoro-2′-(methylsulfonyl)-[1,1′-biphenyl]-4-yl)pyridin-2-amine]		> 10000 nM

More lines, in order of falling Ki (wild type FLAP), values ahead:

Ki (wild type FLAP)	Ki [1]	SMILES
1300 nM		Nc1cncc(S(=O)(=O)c2ccccc2-c2ccc(-c3cnc(N)nc3)c(F)c2)n1 [Example 725, 5-{2′-[(6-Aminopyrazin-2-yl)sulfonyl]-3-fluorobiphenyl-4-yl}pyrimidin-2-amine]
1160 nM		CS(=O)(=O)Cc1ccccc1-c1ccc(-c2cnc(N)cn2)c(F)c1 [Example 750, 5-{3-Fluoro-2′-[(methylsulfonyl)methyl]biphenyl-4-yl}pyrazin-2-amine]
984 nM		CC(C)(CN)S(=O)(=O)c1ccccc1-c1ccc(-c2cnc(N)cn2)c(F)c1 [Example 737, 5-{2′-[(2-Amino-1,1-dimethylethyl)sulfonyl]-3-fluorobiphenyl-4-yl}pyrazin-2-amine]
982 nM		Cc1c(-c2ccccc2NS(C)(=O)=O)ccc(-c2cnc(N)cn2)c1F [Example 463, N-[4′-(5-Aminopyrazin-2-yl)-3′-fluoro-2′-methylbiphenyl-2-yl]methanesulfonamide]
832 nM		Nc1cnc(-c2ccc(-c3cccnc3OCCO)cc2F)cn1 [Example 650, 2-({3-[4-(5-Aminopyrazin-2-yl)-3-fluorophenyl]pyridin-2-yl}oxy)ethanol]
768 nM		C[C@H](NC(=O)c1ccccc1-c1ccc(-c2cnc(N)nc2)c(F)c1)C(F)(F)F [Example 504, 4′-(2-Aminopyrimidin-5-yl)-3′-fluoro-N-[(1S)-2,2,2-trifluoro-1-methylethyl]biphenyl-2-carboxamide]
~750 nM		CS(=O)(=O)Nc1ccccc1-c1ccc(-c2ccc(N)nc2)c(F)c1 [Example 659, N-(4′-(6-Aminopyridin-3-yl)-3′-fluoro-[1,1′-biphenyl]-2-yl)methanesulfonamide]
730 nM		O=C(c1ncccc1-c1ccc(-c2cnc3[nH]ccc3c2)c(F)c1)N1CCOCC1 [Example 781, 5-{2-Fluoro-4-[2-(morpholin-4-ylcarbonyl)pyridin-3-yl]phenyl}-1H-pyrrolo[2,3-b]pyridine]
573 nM		Nc1cnc(-c2ccc(-c3ccccc3C(=O)N3CCC[C@H](O)C3)cc2F)cn1 [Example 768, (3S)-1-{[4′-(5-Aminopyrazin-2-yl)-3′-fluorobiphenyl-2-yl]carbonyl}piperidin-3-ol]
391 nM		Nc1ncc(-c2ccc(-c3ccc(C(F)(F)F)cc3C(=O)N3CCC(O)CC3)cc2F)cn1 [Example 796, [2-[4-(2-Aminopyrimidin-5-yl)-3-fluoro-phenyl]-5-(trifluoromethyl)phenyl]-(4-hydroxy-1-piperidyl)methanone]
~304 nM		Nc1cnc(-c2ccc(-c3ccccc3N3CCNC3=O)cc2F)cn1 [Example 702, 1-(4′-(5-Aminopyrazin-2-yl)-3′-fluoro-[1,1′-biphenyl]-2-yl)imidazolidin-2-one]
250 nM		Nc1cnc(-c2ccc(-c3c(F)cccc3F)cc2F)cn1 [Example 478, 5-(2′,3,6′-Trifluorobiphenyl-4-yl)pyrazin-2-amine]
120 nM		CC(C)c1ccccc1-c1ccc(-c2cnc(N)cn2)c(F)c1 [Example 482, 5-[3-Fluoro-2′-(1-methylethyl)biphenyl-4-yl]pyrazin-2-amine]
